Source: the supplement of paper PMC10307832

Assays:
Assay in all cases: relative viability (nuclei count vs DMSO), 5 days (fraction); higher = more cells survive
Sunitinib + Dasatinib = compound: CCN(CC)CCNC(=O)c1c(C)[nH]c(/C=C2\C(=O)Nc3ccc(F)cc32)c1C [Sunitinib] + Cc1nc(Nc2ncc(C(=O)Nc3c(C)cccc3Cl)s2)cc(N2CCN(CCO)CC2)n1 [Dasatinib] (partner 0.075 µM)
Summary of the method: (§1)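 Relative viability equals treated-well nuclei counts divided by vehicle-well nuclei counts. Counts came from 4× images of lung cancer cell lines grown in 1536-well plates for 5 days after pin-tool dosing on the day after seeding. Dosing used one drug alone or a fixed anchor-drug dose plus five library-drug doses (not always all listed) in √10 steps, and values are medians of duplicate plates.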

Sunitinib + Luminespib = compound: CCN(CC)CCNC(=O)c1c(C)[nH]c(/C=C2\C(=O)Nc3ccc(F)cc32)c1C [Sunitinib] + CCNC(=O)c1noc(-c2cc(C(C)C)c(O)cc2O)c1-c1ccc(CN2CCOCC2)cc1 [Luminespib] (partner 0.01 µM)
Summary of the method: as §1

Sunitinib + Bortezomib = compound: CCN(CC)CCNC(=O)c1c(C)[nH]c(/C=C2\C(=O)Nc3ccc(F)cc32)c1C [Sunitinib] + CC(C)C[C@H](NC(=O)[C@H](Cc1ccccc1)NC(=O)c1cnccn1)B(O)O [Bortezomib] (partner 0.002 µM)
Summary of the method: as §1

Sunitinib + Navitoclax = compound: CCN(CC)CCNC(=O)c1c(C)[nH]c(/C=C2\C(=O)Nc3ccc(F)cc32)c1C [Sunitinib] + CC1(C)CCC(c2ccc(Cl)cc2)=C(CN2CCN(c3ccc(C(=O)NS(=O)(=O)c4ccc(N[C@H](CCN5CCOCC5)CSc5ccccc5)c(S(=O)(=O)C(F)(F)F)c4)cc3)CC2)C1 [Navitoclax] (partner 0.5 µM)
Summary of the method: as §1

Cell Line	relative viability (Sunitinib + Dasatinib; first compound 0.02 µM)	relative viability (Sunitinib + Dasatinib; first compound 0.06325 µM)	relative viability (Sunitinib + Dasatinib; first compound 0.2 µM)	relative viability (Sunitinib + Dasatinib; first compound 0.6325 µM)	relative viability (Sunitinib + Dasatinib; first compound 2 µM)	relative viability (Sunitinib + Luminespib; first compound 0.02 µM)	relative viability (Sunitinib + Luminespib; first compound 0.06325 µM)	relative viability (Sunitinib + Luminespib; first compound 0.2 µM)	relative viability (Sunitinib + Luminespib; first compound 0.6325 µM)	relative viability (Sunitinib + Luminespib; first compound 2 µM)	relative viability (Sunitinib + Bortezomib; first compound 0.02 µM)	relative viability (Sunitinib + Bortezomib; first compound 0.06325 µM)	relative viability (Sunitinib + Bortezomib; first compound 0.2 µM)	relative viability (Sunitinib + Bortezomib; first compound 0.6325 µM)	relative viability (Sunitinib + Navitoclax; first compound 0.6325 µM)	relative viability (Sunitinib + Navitoclax; first compound 2 µM)	relative viability (Sunitinib + Bortezomib; first compound 2 µM)	relative viability (Sunitinib + Navitoclax; first compound 0.02 µM)	relative viability (Sunitinib + Navitoclax; first compound 0.2 µM)	relative viability (Sunitinib + Navitoclax; first compound 0.06325 µM)
NCI-H1755	0.41	0.46	0.441	0.424	0.448	0.435	0.497	0.499	0.441	0.334	0.992	1.02	1.04	0.93	1.04	0.993	–	–	–	–
NCI-H1792	0.678	0.799	1.02	0.754	0.74	–	0.38	0.622	0.483	0.426	0.93	0.924	1.09	0.99	0.537	0.66	0.981	0.664	0.777	–
NCI-H1915	0.302	0.346	0.322	0.34	0.296	0.5	0.846	0.822	0.869	0.83	–	0.994	1	1.05	0.815	0.805	1.02	0.764	0.833	0.765
NCI-H1975	0.36	0.403	0.399	0.423	0.344	0.278	0.185	0.185	0.173	0.172	0.401	0.448	0.401	0.438	1.12	1.12	0.406	1.07	1.11	1.15
NCI-H1993	0.735	0.545	0.779	0.654	0.645	0.741	0.941	0.866	0.654	0.79	1.1	1.34	1.36	–	0.872	0.905	1.04	0.923	–	1.01
NCI-H2009	0.291	0.379	0.288	0.393	0.309	1.02	1.05	1.18	1.04	1.04	0.973	–	1.01	1.17	1.16	1.26	1.18	1.18	1.26	1.19
NCI-H2023	0.459	0.582	0.628	0.707	0.642	0.602	0.671	1.08	0.765	0.611	0.921	1.13	1.11	1.22	1.06	0.975	–	–	1.11	1.05
NCI-H2085	0.271	0.269	0.222	0.256	0.26	0.494	0.399	0.489	0.46	0.377	1	1.05	–	1.16	1.18	1.28	1.07	–	1.23	1.19
NCI-H2087	0.717	1.25	1	0.945	0.669	0.195	0.172	0.166	0.158	0.174	0.855	0.793	0.966	0.994	1.01	0.969	1.04	0.976	1.14	0.99
